Reference: US8796180B2, “Aminoquinazoline compounds for combating invertebrate pests” (BASF SE, priority 2009, dated 2014)

How the values were obtained:
Format in all cases: in vivo
[1] = system: Southern Armyworm (Spodoptera eridania, 2nd instar larvae); assay: Southern Armyworm foliar spray test on lima bean plants (B.1); conditions: 96 h, assessed 4 days after treatment, read-out: mortality in comparison with untreated controls
Description: B.1 Southern Armyworm (Spodoptera eridania, 2nd instar larvae)
The active compounds were formulated in cyclohexanone as a 10,0000 ppm solution supplied in 1.3 ml ABgene® tubes. These tubes were inserted into an automated electrostatic sprayer equipped with an atomizing nozzle and they served as stock solutions for which lower dilutions were made in 50% acetone: 50% water (v/v). A nonionic surfactant (Kinetic®) was included in the solution at a volume of 0.01% (v/v). Lima bean plants (variety Sieva) were grown 2 plants to a pot and selected for treatment at the 1st true leaf stage. Test solutions were sprayed onto the foliage by an automated electrostatic plant sprayer equipped with an atomizing spray nozzle. The plants were dried in the sprayer fume hood and then removed from the sprayer. Each pot was placed into perforated plastic bags with a zip closure. Ten to 11 armyworm larvae were placed into the bag and the bags zipped closed. Test plants were maintained in a growth room at 25° C. and 20-40% relative humidity for 4 days, avoiding direct exposure to fluorescent light (24 hour photoperiod) to prevent trapping of heat inside the bags. Mortality and reduced feeding were assessed 4 days after treatment, compared to untreated control plants.

[2] = system: Mediterranean fruitfly (Ceratitis capitata); assay: Mediterranean fruitfly insect diet microtiter test (B.9); conditions: 120 h, test concentration 800 ppm, egg and larval mortality on insect diet, 5 days
Description: B. 9 Mediterranean fruitfly (Ceratitis capitata)
(§1) For evaluating control of Mediterranean fruitfly (Ceratitis capitata) the test unit consisted of microtiter plates containing an insect diet and 50-80 C. capitata eggs. The compounds were formulated using a solution containing 75% v/v water and 25% v/v DMSO. Different concentrations of formulated compounds were sprayed onto the insect diet at 5 μl, using a custom built micro atomizer, at two replications. After application, microtiter plates were incubated at about 28±1° C. and about 80±5% relative humidity for 5 days. Egg and larval mortality was then visually assessed.

[3] = system: Tobacco budworm (Heliothis virescens); assay: Tobacco budworm insect diet microtiter test (B.10); conditions: 120 h, test concentration 800 ppm, egg and larval mortality on insect diet, 5 days
Description: B.10 Tobacco budworm (Heliothis virescens)
as §1, with “of tobacco budworm (Heliothis virescens)” for “of Mediterranean fruitfly (Ceratitis capitata)”, “unit consists” for “unit consisted”, “of 96-well-microtiter” for “of microtiter”, “and 15-25 H. virescens” for “and 50-80 C. capitata”, “at 10” for “at 5”

[4] = system: Diamondback moth (Plutella xylostella); assay: Diamondback moth leaf-dip test on Chinese cabbage (B.4); conditions: test concentration 500 ppm, dipped Chinese cabbage leaves, mortality recorded 24, 72 and 120 hours after treatment, read-out: mortality in comparison with untreated controls
Description: B.4 Diamondback moth (Plutella xylostella)
The active compound was dissolved at the desired concentration in a mixture of 1:1 (vol:vol) distilled water:acetone. The test solution was prepared at the day of use.
The activity against Plutella xylostella can be tested by the following experiments:
Leaves of Chinese cabbage were dipped in test solution and air-dried. Treated leaves were placed in petri dished lined with moist filter paper. Mortality was recorded 24, 72, and 120 hours after treatment.

[5] = system: Colorado potato beetle (Leptinotarsa decemlineata, adult); assay: Colorado potato beetle test on treated eggplant foliage (B.3); conditions: test concentration 300 ppm, assessed 4 days after treatment
Description: B.3 Colorado potato beetle (Leptinotarsa decemlineata, adult)
The active compounds were formulated in cyclohexanone as a 10,0000 ppm solution supplied in 1.3 ml ABgene® tubes. These tubes were inserted into an automated electrostatic sprayer equipped with an atomizing nozzle and they served as stock solutions for which lower dilutions were made in 50% acetone:50% water (v/v). A nonionic surfactant (Kinetic®) was included in the solution at a volume of 0.01% (v/v). Eggplants were grown 2 plants to a pot and were selected for treatment at the 1st true leaf stage. Test solutions were sprayed onto the foliage by an automated electrostatic plant sprayer equipped with an atomizing spray nozzle. The plants were dried in the sprayer fume hood and then removed from the sprayer. The treated foliage was then cut and removed from the pot and placed in a 5-inch Petri dish lined with moistened filter paper. Five beetle larvae were introduced into each Petri dish and the dish was covered by a Petri dish lid. Petri dishes were maintained in a growth room at 25° C. and 20-40% relative humidity for 4 days, avoiding direct exposure to fluorescent light (24 hour photoperiod) to prevent trapping of heat inside the dishes. Mortality and reduced feeding were assessed 4 days after treatment, compared to untreated control plants.

Row | Structure (SMILES) | mortality at 300 ppm [1] | mortality at 800 ppm [2] | mortality at 800 ppm [3] | mortality at 500 ppm [4] | mortality in comparison with untreated controls [5]
1 | CCNc1nc(-c2ccc(Cl)cc2)nc2cc(C(F)(F)F)ccc12 [I-99, [2-(4-Chloro-phenyl)-7-trifluoromethyl-quinazolin-4-yl]ethylamine] | ≥ 50% | ≥ 50% | ≥ 50% | ≥ 50% | 
2 | CCNc1nc(-c2ccc(F)cc2)nc2cc(C(F)(F)F)ccc12 [I-201] |  |  |  |  | at least 50%
3 | CCNc1nc(-c2ccc(C(F)(F)F)cc2)nc2cc(C(F)(F)F)ccc12 [I-209, [2-(4-Trifluoromethylphenyl)-7-trifluoromethyl-quinazolin-4-yl]ethylamine] |  | ≥ 50% | ≥ 50% | ≥ 50% | 
